# In ChEMBL document CHEMBL1201862, “PubChem BioAssay data set” (2004):
# Calls of active or inactive are those of the source.
# Experiments:
# [1] = molecular target: T1, Sentrin-specific protease 8 (Homo sapiens, UniProt Q96LD8); type: functional
# T1 sequence (Q96LD8 whole entry): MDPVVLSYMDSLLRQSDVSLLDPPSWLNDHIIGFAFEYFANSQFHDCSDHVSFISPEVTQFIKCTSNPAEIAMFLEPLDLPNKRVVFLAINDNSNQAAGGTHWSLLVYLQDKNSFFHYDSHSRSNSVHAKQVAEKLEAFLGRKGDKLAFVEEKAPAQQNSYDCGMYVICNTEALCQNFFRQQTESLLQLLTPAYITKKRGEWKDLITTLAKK
# Caspase-3 = molecular target: T2, Caspase-3 (Homo sapiens, UniProt P42574); type: functional;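 further: Dose-response selectivity test against caspase-3 for candidate inhibitors of sentrin-specific proteases (SENPs)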
# T2 sequence (P42574 whole entry): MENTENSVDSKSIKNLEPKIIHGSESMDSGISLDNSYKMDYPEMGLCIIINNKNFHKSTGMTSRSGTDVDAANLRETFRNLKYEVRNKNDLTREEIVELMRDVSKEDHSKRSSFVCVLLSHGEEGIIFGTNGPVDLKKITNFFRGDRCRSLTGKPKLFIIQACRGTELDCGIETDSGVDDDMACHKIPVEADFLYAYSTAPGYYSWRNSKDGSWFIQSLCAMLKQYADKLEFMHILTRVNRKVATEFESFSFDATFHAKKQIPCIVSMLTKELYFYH
# [2] = molecular target: T1, Sentrin-specific protease 8; type: functional; remark: listed apart in the source
# [3] = molecular target: T1, Sentrin-specific protease 8; type: functional; remark: listed apart in the source
# [4] = molecular target: T3, Sentrin-specific protease 6 (Homo sapiens, UniProt Q9GZR1); type: functional;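 further: Luminescence-based dose-response confirmatory assay of SENP6 inhibition, following up an ultra-high-throughput screen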
# T3 sequence (Q9GZR1 whole entry): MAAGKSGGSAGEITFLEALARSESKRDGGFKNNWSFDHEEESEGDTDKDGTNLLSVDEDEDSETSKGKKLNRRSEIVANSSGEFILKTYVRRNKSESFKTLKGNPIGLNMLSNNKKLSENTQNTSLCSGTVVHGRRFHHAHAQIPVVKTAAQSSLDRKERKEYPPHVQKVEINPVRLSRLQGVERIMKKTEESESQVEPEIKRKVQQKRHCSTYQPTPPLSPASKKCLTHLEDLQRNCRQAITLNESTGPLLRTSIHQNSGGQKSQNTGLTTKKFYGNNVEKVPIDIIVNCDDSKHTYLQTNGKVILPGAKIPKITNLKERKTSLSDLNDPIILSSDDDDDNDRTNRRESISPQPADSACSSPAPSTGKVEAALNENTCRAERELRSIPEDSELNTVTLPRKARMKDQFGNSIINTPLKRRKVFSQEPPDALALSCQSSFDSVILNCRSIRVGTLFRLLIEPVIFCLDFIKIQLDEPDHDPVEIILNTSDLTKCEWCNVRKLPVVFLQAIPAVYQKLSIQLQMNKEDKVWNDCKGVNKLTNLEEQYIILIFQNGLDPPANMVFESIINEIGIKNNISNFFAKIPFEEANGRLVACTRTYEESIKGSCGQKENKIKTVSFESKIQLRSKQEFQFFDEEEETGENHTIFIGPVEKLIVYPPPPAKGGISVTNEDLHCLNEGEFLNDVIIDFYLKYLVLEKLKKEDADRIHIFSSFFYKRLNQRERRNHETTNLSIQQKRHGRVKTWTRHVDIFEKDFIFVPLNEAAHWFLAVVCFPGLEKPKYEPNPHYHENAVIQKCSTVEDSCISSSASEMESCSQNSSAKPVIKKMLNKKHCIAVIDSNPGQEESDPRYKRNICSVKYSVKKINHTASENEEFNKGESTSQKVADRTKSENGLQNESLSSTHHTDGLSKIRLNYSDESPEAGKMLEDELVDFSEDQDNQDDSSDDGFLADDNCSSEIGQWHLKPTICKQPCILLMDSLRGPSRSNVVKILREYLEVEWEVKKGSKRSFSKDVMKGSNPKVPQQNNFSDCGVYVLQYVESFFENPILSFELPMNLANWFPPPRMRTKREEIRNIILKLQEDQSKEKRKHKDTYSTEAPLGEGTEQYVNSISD
# Caspase-6 = molecular target: T4, Caspase-6 (Homo sapiens, UniProt P55212); assay: inhibition of CASP6 peptide cleavage – biochemical, VEID-R110 fluorescence, cherry-pick, dose response (AID 720632)
# T4 sequence (P55212 whole entry): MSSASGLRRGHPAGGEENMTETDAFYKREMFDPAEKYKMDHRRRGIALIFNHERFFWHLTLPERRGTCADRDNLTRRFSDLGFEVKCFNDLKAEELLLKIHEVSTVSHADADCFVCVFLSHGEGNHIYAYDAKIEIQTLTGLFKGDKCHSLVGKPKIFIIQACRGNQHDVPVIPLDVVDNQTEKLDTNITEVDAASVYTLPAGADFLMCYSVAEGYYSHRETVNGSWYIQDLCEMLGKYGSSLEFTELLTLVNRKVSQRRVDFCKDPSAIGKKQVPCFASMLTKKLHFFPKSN
# [5] = molecular target: T5, Sentrin-specific protease 7 (Homo sapiens, UniProt Q9BQF6); type: functional;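 further: Luminescence-based dose-response confirmation of ultra-high-throughput screening hits, measuring inhibition of SENP7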
# T5 sequence (Q9BQF6 whole entry): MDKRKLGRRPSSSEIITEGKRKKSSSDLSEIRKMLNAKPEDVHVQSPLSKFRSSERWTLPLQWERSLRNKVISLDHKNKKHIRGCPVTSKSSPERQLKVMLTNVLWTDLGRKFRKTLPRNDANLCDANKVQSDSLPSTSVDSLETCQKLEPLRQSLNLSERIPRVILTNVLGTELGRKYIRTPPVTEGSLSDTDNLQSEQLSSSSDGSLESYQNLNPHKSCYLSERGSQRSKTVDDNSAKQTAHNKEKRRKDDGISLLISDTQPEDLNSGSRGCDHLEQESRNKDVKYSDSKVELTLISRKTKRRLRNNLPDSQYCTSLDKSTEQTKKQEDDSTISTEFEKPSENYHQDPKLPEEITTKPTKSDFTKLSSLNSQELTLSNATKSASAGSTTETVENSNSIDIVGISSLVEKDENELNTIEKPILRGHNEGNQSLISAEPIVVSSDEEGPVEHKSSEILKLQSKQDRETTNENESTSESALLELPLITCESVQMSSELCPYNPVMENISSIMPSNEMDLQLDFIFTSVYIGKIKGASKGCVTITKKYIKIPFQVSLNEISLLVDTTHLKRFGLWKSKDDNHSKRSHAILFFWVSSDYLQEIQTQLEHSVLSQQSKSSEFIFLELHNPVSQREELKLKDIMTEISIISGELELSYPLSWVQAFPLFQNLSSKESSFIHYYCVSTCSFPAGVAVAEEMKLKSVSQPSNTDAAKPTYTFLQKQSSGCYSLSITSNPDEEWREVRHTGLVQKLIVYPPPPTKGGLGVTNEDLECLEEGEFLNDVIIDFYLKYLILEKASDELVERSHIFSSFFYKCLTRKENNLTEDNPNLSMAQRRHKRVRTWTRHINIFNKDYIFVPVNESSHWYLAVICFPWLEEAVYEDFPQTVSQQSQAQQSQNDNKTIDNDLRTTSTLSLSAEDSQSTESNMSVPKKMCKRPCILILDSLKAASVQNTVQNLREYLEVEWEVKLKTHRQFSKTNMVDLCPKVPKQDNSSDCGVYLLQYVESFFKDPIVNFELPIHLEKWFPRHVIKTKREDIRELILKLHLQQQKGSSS
# [6] = molecular target: T6, Replicative DNA helicase DnaB (Mycobacterium tuberculosis, UniProt P9WMR3); assay: DnaB intein splicing inhibitors, dose response, biochemical, cell-free fluorescence (AID 449749); type: functional
# T6 sequence (P9WMR3 whole entry): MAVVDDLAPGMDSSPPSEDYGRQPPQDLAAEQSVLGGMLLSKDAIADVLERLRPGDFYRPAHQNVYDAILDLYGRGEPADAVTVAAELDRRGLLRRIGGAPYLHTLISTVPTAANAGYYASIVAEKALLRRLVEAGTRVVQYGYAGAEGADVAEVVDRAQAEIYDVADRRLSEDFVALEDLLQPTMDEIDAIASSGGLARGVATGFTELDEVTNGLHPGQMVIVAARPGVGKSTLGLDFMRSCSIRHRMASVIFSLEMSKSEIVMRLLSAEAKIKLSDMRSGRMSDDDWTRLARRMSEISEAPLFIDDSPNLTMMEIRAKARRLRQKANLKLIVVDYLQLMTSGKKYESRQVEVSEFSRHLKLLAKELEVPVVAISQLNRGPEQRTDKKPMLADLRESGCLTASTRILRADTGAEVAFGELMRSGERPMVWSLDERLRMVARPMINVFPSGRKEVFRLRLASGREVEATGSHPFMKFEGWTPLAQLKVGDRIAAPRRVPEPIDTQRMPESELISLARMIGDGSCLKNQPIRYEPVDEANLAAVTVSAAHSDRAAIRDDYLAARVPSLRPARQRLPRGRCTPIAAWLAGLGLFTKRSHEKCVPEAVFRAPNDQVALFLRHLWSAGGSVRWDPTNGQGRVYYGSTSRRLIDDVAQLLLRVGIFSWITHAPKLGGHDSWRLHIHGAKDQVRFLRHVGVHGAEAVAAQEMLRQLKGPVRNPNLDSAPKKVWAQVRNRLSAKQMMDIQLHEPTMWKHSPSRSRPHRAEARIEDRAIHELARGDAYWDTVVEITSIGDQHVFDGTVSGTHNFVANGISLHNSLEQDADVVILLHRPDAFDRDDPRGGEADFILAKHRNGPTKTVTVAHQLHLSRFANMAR
# BJ [7] = assay: BJ-TERT-LT-ST fibroblast viability loss – cell-based, RAS-independent, luminescence, dose response (AID 1935); type: functional; conditions: Homo sapiens;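 further: BJ fibroblasts immortalized with TERT plus LT and ST oncogenes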
# [8] = Fluorescence-based cell-based high throughput dose response assay for inhibitors of the interaction of nucleotide-binding oligomerization domain containing 2 (NOD2) and the receptor-interacting serine-threonine kinase 2 (RIPK2).; type: functional; conditions: Homo sapiens
# Protein RecA = molecular target: T7, Protein RecA (Mycobacterium tuberculosis, UniProt P9WHJ3); assay: Fluorescence Cell-Free Homogeneous Dose Retest to Identify Inhibitors of RecA-Intein Splicing Activity. [Related pubchem assays (depositor defined):AID2097, AID2223, AID489010, AID492950]; type: functional
# T7 sequence (P9WHJ3 whole entry): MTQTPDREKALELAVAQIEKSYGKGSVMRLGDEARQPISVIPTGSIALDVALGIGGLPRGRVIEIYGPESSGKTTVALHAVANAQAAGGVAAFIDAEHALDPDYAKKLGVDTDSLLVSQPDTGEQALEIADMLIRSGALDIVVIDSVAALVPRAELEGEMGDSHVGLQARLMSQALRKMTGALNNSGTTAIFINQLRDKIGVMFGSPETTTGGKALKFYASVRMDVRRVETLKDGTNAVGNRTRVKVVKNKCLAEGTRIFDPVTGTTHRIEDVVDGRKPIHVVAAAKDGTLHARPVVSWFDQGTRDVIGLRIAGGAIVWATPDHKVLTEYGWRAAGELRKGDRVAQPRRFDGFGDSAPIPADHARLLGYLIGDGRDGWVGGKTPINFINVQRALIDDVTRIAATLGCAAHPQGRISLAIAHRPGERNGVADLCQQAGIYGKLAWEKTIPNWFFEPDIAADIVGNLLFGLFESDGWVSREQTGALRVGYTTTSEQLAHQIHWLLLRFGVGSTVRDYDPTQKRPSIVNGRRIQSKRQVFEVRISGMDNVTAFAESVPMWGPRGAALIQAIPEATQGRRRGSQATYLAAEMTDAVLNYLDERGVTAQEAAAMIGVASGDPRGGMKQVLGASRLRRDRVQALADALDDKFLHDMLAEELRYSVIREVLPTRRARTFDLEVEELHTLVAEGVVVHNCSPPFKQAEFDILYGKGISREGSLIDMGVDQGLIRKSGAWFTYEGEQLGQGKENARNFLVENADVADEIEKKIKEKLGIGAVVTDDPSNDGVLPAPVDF
# INS1 = assay: INS-1E survival protection against cytokine death – cell-based, luminescence, retest, dose response (AID 449756); type: functional; conditions: Rattus norvegicus;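 further: cell death triggered by IL-1 beta plus TNF-alpha plus IFN-gamma mixture; protective hits raise ATP signal compared with cytokine alone wells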
# Beta Lactamase = Beta Lactamase (Pseudomonas aeruginosa, UniProt Q932Y6); assay: BLA reporter interference, concentration series – BLA reporter cells, FRET fluorescence, artefact control for NOD2-RIPK2 interaction inhibitor project, dose response (AID 651552); type: functional, cell-based
# [9] = HepG2 cell cytotoxicity, dose response, cytotoxicity control for non-replicating M. tuberculosis project (AID 489018); type: functional; conditions: Mycobacterium tuberculosis
# Vero = assay: viability of Vero cells under compound – cytotoxicity control for flavivirus capping enzyme inhibitors (AID 588742); type: functional; conditions: Chlorocebus sabaeus
# [10] = molecular target: Neurotensin receptor type 1 (Homo sapiens, UniProt P30989); type: functional;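 further: Image-based confirmatory dose-response assay measuring agonist activity at NTR1; NTR1-expressing U2OS osteosarcoma cells imaged for beta-arrestin GFP spot formation; agonist potency where compounds increase beta-arrestin recruitment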
# [11] = THP-1 cell cytotoxicity, dose response, cytotoxicity control for non-replicating M. tuberculosis project (AID 489025); type: functional
# [12] = DRD fibroblast viability loss – cell-based, non-viral oncogenic, luminescence, dose response (AID 1934); type: functional; conditions: Homo sapiens
# [13] = molecular target: Heat shock protein HSP 90-alpha (Homo sapiens, UniProt P07900); type: functional, organism-based
# Genome polyprotein = Genome polyprotein (dengue virus type 2, UniProt P29990); assay: flavivirus cap methylation enzyme inhibition – biochemical, confirmation dose response, primary screen (AID 588689); type: functional
# [14] = viability of HCT116 lacking mutant beta-catenin – cell-based, human colon tumor, dose response (AID 1045); type: functional;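 further: HCT116 colon tumor cells with beta catenin knocked out; cells exposed to compound for 60 hours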
# cells = type: functional
# [15] = Vero E6 cell cytotoxicity, dose response, cytotoxicity control for non-replicating M. tuberculosis project, secondary assay (AID 492998); type: functional, VeroE6; conditions: Vero C1008
# BJ [16] = assay: cells; type: functional, cell-based; conditions: Homo sapiens
# [17] = viability of PTEN-deleted HCT116 cells – cell-based, HCT116 PTEN knockout, dose response (AID 1047); type: functional;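 further: HCT116 colon tumor cells with PTEN knocked out; cells exposed to compound for 60 hours before readout; potency for loss of cell viability measured by luminescence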
# Chain of Neurotensin receptor type 1 (P30989 whole entry): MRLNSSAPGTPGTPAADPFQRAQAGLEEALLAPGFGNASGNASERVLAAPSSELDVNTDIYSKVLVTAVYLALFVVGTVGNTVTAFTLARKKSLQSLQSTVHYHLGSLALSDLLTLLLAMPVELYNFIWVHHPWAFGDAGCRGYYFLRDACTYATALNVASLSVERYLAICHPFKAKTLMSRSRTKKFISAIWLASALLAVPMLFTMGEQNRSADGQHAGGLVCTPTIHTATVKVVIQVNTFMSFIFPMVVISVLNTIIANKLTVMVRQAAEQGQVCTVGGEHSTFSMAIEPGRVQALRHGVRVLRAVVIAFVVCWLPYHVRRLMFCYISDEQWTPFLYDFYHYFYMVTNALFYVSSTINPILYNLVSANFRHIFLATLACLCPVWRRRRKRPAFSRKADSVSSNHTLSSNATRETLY
# Chain of Genome polyprotein (P29990 2492-3391 limits assumed): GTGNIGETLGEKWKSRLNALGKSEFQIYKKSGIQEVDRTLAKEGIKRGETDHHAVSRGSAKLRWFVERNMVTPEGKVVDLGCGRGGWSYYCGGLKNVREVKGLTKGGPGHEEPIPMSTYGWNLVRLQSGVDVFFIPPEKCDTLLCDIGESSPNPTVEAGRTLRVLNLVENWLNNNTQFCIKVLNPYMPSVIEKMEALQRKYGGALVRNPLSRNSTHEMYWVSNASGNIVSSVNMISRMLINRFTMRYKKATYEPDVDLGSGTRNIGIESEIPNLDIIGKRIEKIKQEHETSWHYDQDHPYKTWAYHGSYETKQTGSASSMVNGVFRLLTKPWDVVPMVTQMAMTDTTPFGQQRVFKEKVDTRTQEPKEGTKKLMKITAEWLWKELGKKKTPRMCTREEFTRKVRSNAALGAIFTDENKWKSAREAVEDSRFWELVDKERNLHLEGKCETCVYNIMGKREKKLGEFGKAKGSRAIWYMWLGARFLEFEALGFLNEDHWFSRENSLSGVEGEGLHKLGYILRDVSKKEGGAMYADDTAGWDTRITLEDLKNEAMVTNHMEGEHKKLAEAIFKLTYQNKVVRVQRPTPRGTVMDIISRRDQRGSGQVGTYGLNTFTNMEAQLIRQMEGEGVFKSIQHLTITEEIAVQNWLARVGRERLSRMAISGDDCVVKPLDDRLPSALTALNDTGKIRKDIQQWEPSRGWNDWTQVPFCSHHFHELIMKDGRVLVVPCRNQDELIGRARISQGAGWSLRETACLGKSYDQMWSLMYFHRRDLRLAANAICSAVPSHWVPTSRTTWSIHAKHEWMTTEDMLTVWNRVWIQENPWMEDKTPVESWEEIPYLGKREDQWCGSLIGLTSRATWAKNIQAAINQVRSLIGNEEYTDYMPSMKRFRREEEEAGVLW
# Chain of Beta Lactamase (Q932Y6 whole entry): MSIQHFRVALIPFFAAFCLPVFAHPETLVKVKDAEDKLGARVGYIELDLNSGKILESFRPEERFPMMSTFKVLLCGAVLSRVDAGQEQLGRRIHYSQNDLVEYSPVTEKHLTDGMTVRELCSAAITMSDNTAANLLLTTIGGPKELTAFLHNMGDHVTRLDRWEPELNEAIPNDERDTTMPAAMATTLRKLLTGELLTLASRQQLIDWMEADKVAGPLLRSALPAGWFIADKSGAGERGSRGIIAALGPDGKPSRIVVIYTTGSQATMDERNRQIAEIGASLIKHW
smiles,measurement,setting,value
O=C1OC(Nc2cc(Br)cc3cccnc23)c2ccccc21 (stereo not given),IC50,[1],8.4 µM (active)
same,IC50,Caspase-3,2.67 µM (active)
same,IC50,[2],1.63 µM (active)
same,IC50,[3],> 100 µM (inactive)
same,IC50,[4],< 1.55 µM (active)
same,AC50,Caspase-6,11.1 µM (active)
same,IC50,[5],1.79 µM (active)
CC1=NNC(=O)/C1=C\c1cn(-c2ccccc2)nc1-c1cccs1,AC50,[6],3.97 µM (active)
same,EC50,BJ [7],13 µM (active)
same,IC50,[8],1.55 µM (active)
same,EC50,Protein RecA,1.44 µM (active)
same,AC50,INS1,7.34 µM (active)
same,IC50,Beta Lactamase,49.8 µM (inactive)
same,CC50,[9],9.49 µM (active)
same,CC50,Vero,10.9 µM (active)
same,EC50,[10],5.14 µM (active)
same,CC50,[11],7.31 µM (active)
same,EC50,[12],5.32 µM (active)
same,AC50,[13],1.87 µM (active)
same,IC50,Genome polyprotein,> 100 µM (active)
same,EC50,[14],7.11 µM (active)
same,IC50,cells,24.8 µM (active)
same,CC50,[15],9.79 µM (active)
same,EC50,BJ [16],4.55 µM (inconclusive)
same,EC50,[17],7.38 µM (active)
